Series [1] deals with T1, human Cav3.2 T-type calcium channels (Homo sapiens, UniProt O95180).
T1 construct: expressed in transfected cells; host or cells: HEK 293 cells
Description: Whole-cell patch clamp, T channel current in HEK 293 cells forcibly expressing human Cav3.2. The format is cell-based. As to conditions: perfusion addition method; from percentage change in T-channel current before and after addition; n=3 to 17. The method, then: The effect of the compound of the present invention on human Cav3.2 T-type calcium channels was evaluated by whole-cell patch clamp method. As a control (vehicle), DMSO solution was used.
Human kidney cell-derived cell line, HEK 293 cells, in which human Cav3.2 T-type calcium channels were forcibly expressed, were seeded into cell culture dishes using DMEM medium containing 10% fetal bovine serum and cultured at 37° C. under 5% CO2 conditions. In the whole-cell patch clamp method, the following solutions were used as extracellular and intracellular solutions, the holding potential is set at −80 mV, and the barium current flowing as an inward current in a potential jump from −80 mV to −20 mV was measured with a patch clamp amplifier and AD converter (Axon Instruments). In order to eliminate the influence of high-threshold activated calcium channels, the value obtained by subtracting the current at 150 ms after the start of stimulation from the peak current was used for data analysis as the T channel current (T-current). The data analysis was performed using pClamp8 (Axon Instruments).
As for test compounds, each compound dissolved in extracellular solution was added directly to the dishes (direct addition method) or added to the dishes by perfusion (perfusion addition method).
According to a similar method to the perfusion addition method of Test Example 1, the effect of each compound of the present invention on human Cav3.2 T-type channels was evaluated. As the test compounds, pimozide at each concentration of 0.01 μM, 0.1 μM, 0.3 μM, 1.0 μM and 3.0 μM, compound 5, compound 14 and compound 15 were used and the test compounds were added by perfusion.

Series [2] has as its system mouse intrabuccal injection pruritus models (chloroquine). Description: Mouse intrabuccal injection pruritus model, chloroquine as pruritogen. As to conditions: for Scratching bouts (counts/60 minutes) (n): mean ± standard error (n); for inhibition of the histamine-independent scratching bouts: 10 mg/kg, chloroquine, result in words. It counts as in vivo, mice. The method, then: (§1) In this test, the antipruritic effect of the present compound was studied using mouse intrabuccal injection pruritus models in which histamine or chloroquine is intra-buccally administered as a pruritogen. Compound 5 and compound 38 were used as the present compound, and saline comprising 1% DMSO and 5% Tween 80 was used as control. Compound 5 and compound 38 were dissolved into saline comprising 1% DMSO and 5% Tween 80 to adjust the concentration of each compound. Also, male ICR mice with a body weight of 23 to 40 g were used as experimental animals and the animals were freely given tap water and solid feed and was kept under 12-hour light/dark cycle at room temperature of about 24° C.
According to the method in Shimada SG & LaMotte R H (2008) Behavioral differentiation between itch and pain in mouse. Pain 139 (3): 681-687, histamine or chloroquine, which is a pruritogen, was dissolved into saline and the solution was administered into the buccal skin of each male ICR mouse and pruritus was induced to prepare mouse intrabuccal injection pruritus models. The mice were randomly divided into saline comprising 1% DMSO and 5% Tween 80 (Solvent 1)+saline (Solvent 2) administration group (control group), Solvent 1+histamine administration group, compound 5 (10 mg/kg)+histamine administration group, Solvent 1+chloroquine administration group, compound 5 (10 mg/kg)+chloroquine administration group, compound 38 (1 mg/kg)+chloroquine administration group, compound 38 (3 mg/kg)+chloroquine administration group and compound 38 (10 mg/kg)+chloroquine administration group (n=6 to 10). The mice in each group were anesthetized with isoflurane and their right cheek hairs were shaved a few days before the experiment. On the day of the experiment, the mice were placed in an acrylic observation cage (10×14×30 cm) with mirrors on all four sides and allowed to acclimate the environment for at least 30 minutes. After the acclimatization, saline in a volume of 10 μL/site, histamine in a volume of 300 μL/site or chloroquine in a volume of 100 μL/site was intradermally administered to the shaved cheeks of the mice without anesthesia, and their subsequent behavior was recorded on video for 60 minutes. Compound 5 (10 mg/kg), compound 38 (1 mg/kg, 3 mg/kg or 10 mg/kg) or Solvent 1 (10 mL/kg) was intraperitoneally administered 30 minutes before saline or the pruritogen was administered. At the later date, the video was replayed and the number of occurrences of the scratching bouts by the hind paws to the administration site (as pruritus response) was counted for 60 minutes to evaluate the antipruritic effect of the present compound.
The test results are shown in Table 5 to Table 7 and FIG. 8 to FIG. 10. Table 5 and FIG. 8 show the mean value±standard error (the total (n)) of the total counts of the scratching bouts by the hind paws to the administration site for 60 minutes after the administration in control group, Solvent 1+histamine administration group and compound 5 (10 mg/kg)+histamine administration group and the graph thereof, and Table 6 and FIG. 9 show the mean value±standard error (the total (n)) of the total counts of the scratching bouts by the hind paws to the administration site for 60 minutes after the intrabuccal administration on the right side in control group, Solvent 1+chloroquine administration group, compound 5(10 mg/kg)+chloroquine administration group and the graph thereof, and Table 7 and FIG. 10 show the mean value±standard error (the total (n)) of the total counts of the scratching bouts by the hind paws to the administration site for 60 minutes after the intrabuccal administration on the right side in control group, Solvent 1+chloroquine administration group, compound 38 (1 mg/kg)+chloroquine administration group, compound 38 (3 mg/kg)+chloroquine administration group and compound 38 (10 mg/kg)+chloroquine administration group and the graph thereof.

In series [3] the test system is mouse Na2S intraplantar injection pain models. Description: Mouse Na2S intraplantar injection pain model (von Frey pain threshold). It counts as in vivo, mice. Particulars: for Pain Threshold: mean ± standard error. The procedure:
In this test, the analgesic effect of the present compound was studied using mouse Na2S intraplantar injection pain models. Compound 5 was used as the present compound, and saline comprising 1% DMSO and 5% Tween 80 was used as vehicle.
Male ICR mice were received the intraplantar injection of 10 μmol/paw/10 μL of Na2S and T-type calcium channel-dependent pain was induced to prepare mouse Na2S intraplantar injection pain models. The mice were randomly divided into the vehicle+vehicle administration group (control group), vehicle+Na2S administration group, compound 5 (1 mg/kg)+Na2S administration group, compound 5 (3 mg/kg)+Na2S administration group and compound 5 (10 mg/kg)+Na2S administration group (n=7 to 11). Vehicle (V, 10 mL/kg) or 1, 3 or 10 mg/kg of compound 5 was intraperitoneally administered 30 minutes before Na2S was injected intraplantarlly in the hind paws of the mice.
Pain thresholds were measured every 15 minutes until 60 minutes after the administration of Na2S by the von Frey method to evaluate the analgesic effect of the present compound.

Series [4] concerns mouse Na2S intrabuccal injection pruritus models. Description: Mouse Na2S intrabuccal injection pruritus model (scratching bouts and wipes). It counts as in vivo, mice. The method, then: In this test, the antipruritic and analgesic effects of the present compound was studied using mouse Na2S intrabuccal injection pruritus models. Compound 5 was used as the present invention and saline comprising 1% DMSO and 5% Tween 80 was used as vehicle.
Male ICR mice were received the intrabuccal injection of 3.8 μmol (300 μg/10 μL) of Na2S and T-type calcium channel-[…] pain was induced to prepare mouse Na2S intrabuccal injection pruritus models. 18 mice were randomly divided into vehicle+saline administration group (control group), vehicle+Na2S administration group and compound 5 (10 mg/kg)+Na2S administration group (6 mice per group). The mice in each group were anesthetized with isoflurane and their right cheek hairs were shaved the day or a few days before the experiment. On the day of the experiment, the mice were placed in an acrylic observation cage with mirrors on all four sides and allowed to acclimate the environment for at least 30 minutes. After the acclimatization, Na2S was intradermally administered to the shaved cheeks of the mice without anesthesia, and their subsequent behavior was recorded on video. Compound 5 (10 mg/kg) or vehicle (V, 10 mL/kg) was intraperitoneally administered 30 minutes before Na2S was administered. At the later date, the video was replayed and the number of occurrences of the scratching bouts by the hind paws to the administration site (as pruritus response) and the wipes (wiping) by the forepaws (as pain response) was counted for 60 minutes to evaluate the antipruritic and analgesic effects of the present compound.

For another series, the system named is male ddY mice. The series can be described thus: Catalepsy-inducing effect (bar test) after administration in the lateral ventricle. It counts as in vivo. As to conditions: 8 nmol in the lateral ventricle; 30-180 minutes after administration; result in words. The text has this:
In this test, the catalepsy-inducing effect of the present compound was studied to evaluate whether the present compound can inhibit side effects caused by the dopamine D2 receptor blockade. Compound 5 and compound 12 were used as the present compound and 2% DMSO solution was used as vehicle. Also, pimozide was used as the control drug.
16 male ddY mice were randomly divided into compound 5 administration group, compound 12 administration group, pimozide administration group and vehicle administration group (4 mice per group). The mice in each group were received the administration of 8 nmol (0.8 mM/10 μL) of compound 5, compound 12 and pimozide, and 10 μL of vehicle in the lateral ventricle. both forepaws of the mice were forced to place themselves on a horizontal iron bar (Height: 5 cm) and the time of keeping the posture (catalepsy) was measured to evaluate the presence or absence of catalepsy. The measurement was terminated when the forepaws touched the floor or when the mouse was on the bar.

Series [5] deals with mouse intrabuccal injection pruritus models (histamine). Description: Mouse intrabuccal injection pruritus model, histamine as pruritogen. It counts as in vivo, mice. The method, then: as §1
According to the method in Shimada SG & LaMotte R H (2008) Behavioral differentiation between itch and pain in mouse. […] After the acclimatization, saline in a volume of 10 μL/site, histamine in a volume of 300 μL/site or chloroquine in a volume of 100 μL/site was intradermally administered to the shaved cheeks of the mice without anesthesia, and their subsequent behavior was recorded on video for 60 minutes. […] At the later date, the video was replayed and the number of occurrences of the scratching bouts by the hind paws to the administration site (as pruritus response) was counted for 60 minutes to evaluate the antipruritic effect of the present compound. […]

Where [6] appears, read: 10 mg/kg i.p. + Na2S, result in words.
Setting [7] is: 10 mg/kg intraperitoneally 30 minutes before Na2S, mean ± standard error, 6 mice.

pIC50: −log10 of the molar value.

T1 sequence (O95180 whole entry): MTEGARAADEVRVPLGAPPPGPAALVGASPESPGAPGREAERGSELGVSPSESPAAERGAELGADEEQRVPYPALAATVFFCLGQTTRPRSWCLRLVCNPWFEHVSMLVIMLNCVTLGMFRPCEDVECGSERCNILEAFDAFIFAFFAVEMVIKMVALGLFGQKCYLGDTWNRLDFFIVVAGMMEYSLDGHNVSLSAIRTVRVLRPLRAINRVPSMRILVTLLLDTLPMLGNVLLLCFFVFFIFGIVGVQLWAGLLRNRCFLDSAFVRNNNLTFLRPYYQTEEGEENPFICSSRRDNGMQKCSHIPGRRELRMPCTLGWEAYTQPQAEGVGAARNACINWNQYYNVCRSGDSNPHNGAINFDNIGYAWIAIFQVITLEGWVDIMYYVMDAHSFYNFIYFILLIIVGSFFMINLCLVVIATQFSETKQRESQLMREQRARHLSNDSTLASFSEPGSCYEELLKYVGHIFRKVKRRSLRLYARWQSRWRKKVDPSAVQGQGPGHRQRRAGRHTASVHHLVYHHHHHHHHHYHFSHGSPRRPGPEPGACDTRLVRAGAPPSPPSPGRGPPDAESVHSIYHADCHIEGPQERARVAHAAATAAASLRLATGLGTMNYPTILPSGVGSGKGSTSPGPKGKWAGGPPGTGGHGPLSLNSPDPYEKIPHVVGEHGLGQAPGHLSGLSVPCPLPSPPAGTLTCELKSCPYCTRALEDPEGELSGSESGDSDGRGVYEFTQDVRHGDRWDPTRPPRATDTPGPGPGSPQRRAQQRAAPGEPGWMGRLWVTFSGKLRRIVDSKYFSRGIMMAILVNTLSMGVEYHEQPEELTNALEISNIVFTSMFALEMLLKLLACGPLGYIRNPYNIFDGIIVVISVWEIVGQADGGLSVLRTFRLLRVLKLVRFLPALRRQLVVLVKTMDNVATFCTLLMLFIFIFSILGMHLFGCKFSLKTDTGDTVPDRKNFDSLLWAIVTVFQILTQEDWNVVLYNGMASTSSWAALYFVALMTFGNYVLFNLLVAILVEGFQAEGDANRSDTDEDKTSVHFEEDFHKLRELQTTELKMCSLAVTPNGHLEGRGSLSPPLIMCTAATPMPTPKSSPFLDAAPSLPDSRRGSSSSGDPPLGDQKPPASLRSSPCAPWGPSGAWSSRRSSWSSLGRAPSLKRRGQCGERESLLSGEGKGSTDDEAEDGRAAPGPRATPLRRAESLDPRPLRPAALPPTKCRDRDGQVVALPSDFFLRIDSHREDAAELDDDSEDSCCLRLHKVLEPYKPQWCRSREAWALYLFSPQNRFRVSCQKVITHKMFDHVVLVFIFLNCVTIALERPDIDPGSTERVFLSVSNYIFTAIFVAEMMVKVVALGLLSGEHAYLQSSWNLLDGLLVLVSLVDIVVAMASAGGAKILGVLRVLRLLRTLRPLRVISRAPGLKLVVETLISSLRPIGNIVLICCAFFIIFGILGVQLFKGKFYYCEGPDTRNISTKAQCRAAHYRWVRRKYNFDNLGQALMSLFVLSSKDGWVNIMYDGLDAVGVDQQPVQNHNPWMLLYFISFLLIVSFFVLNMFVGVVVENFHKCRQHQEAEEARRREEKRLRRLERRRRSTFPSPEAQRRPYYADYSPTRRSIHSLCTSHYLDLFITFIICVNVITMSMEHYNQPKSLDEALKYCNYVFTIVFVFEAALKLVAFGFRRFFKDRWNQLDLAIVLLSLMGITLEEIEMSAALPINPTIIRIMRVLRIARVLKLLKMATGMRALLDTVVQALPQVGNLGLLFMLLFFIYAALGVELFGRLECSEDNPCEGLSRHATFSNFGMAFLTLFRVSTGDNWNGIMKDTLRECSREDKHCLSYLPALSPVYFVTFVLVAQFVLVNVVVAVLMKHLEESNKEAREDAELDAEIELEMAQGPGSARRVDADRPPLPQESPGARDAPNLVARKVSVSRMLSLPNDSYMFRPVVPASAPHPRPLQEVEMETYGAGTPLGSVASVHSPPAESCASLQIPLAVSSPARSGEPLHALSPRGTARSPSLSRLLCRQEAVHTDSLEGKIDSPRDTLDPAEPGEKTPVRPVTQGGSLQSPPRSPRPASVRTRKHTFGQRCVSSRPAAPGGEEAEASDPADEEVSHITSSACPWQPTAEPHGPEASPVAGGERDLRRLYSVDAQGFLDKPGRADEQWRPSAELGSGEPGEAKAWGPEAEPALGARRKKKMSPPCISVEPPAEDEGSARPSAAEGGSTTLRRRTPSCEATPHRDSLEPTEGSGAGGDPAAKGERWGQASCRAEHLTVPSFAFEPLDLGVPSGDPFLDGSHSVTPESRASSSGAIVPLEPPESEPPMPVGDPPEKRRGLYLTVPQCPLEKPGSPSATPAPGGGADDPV

In the case of `O=c1[nH]c2ccccc2n1C1CCN(CCCC(c2ccc(F)cc2)c2ccc(F)cc2)CC1` [Pimozide, 1-{1-[4,4-Bis(4-fluorophenyl)butyl]piperidin-4-yl}-1,3-dihydro-2H-benzimidazol-2-one, reference compound], in series [1], the pIC50 was 6.80.

As for `O=c1n(CCCCc2ccccc2)c2ccccc2n1C1CCN(CCCc2ccccc2)CC1` [Compound 14, 1-(4-Phenylbutyl)-3-(1-(3-phenylpropyl)piperidin-4-yl)-1H-benzo[d]imidazol-2(3H)-one], the negative logarithm of the IC50 (pIC50) in series [1] is 6.47.

On to `O=C(CCCc1ccccc1)N1CCC(n2c(=O)n(CCCCc3ccccc3)c3ccccc32)CC1` [Compound 15, 1-(1-(4-Phenylbutanoyl)piperidin-4-yl)-3-(4-phenylbutyl)-1H-benzo[d]imidazol-2(3H)-one], for which the pIC50 in series [1] is 6.81.

`O=c1n(CCCCc2cccc(F)c2)c2ccccc2n1C1CCN(CCCCc2cccc(F)c2)CC1` [Compound 38, 1-(4-(3-Fluorophenyl)butyl)-3-(1-(4-(3-fluorophenyl)butyl)piperidin-4-yl)-1H-benzo[d]imidazol-2(3H)-one]: the “Scratching bouts (counts/60 minutes) (n)” value is given as 73.0 ± 10.5 (6) counts/60 minutes in series [2] (1 mg/kg i.p. 30 minutes before chloroquine, Table 7); 50.7 ± 9.7 (6) counts/60 minutes in series [2] (3 mg/kg i.p. 30 minutes before chloroquine, Table 7); 28.8 ± 10.5 (8) counts/60 minutes in series [2] (10 mg/kg i.p. 30 minutes before chloroquine, Table 7). In addition, the “inhibition of the histamine-independent scratching bouts” value in series [2] was “strongly inhibited”.

Consider `O=c1n(CCCCc2ccccc2)c2ccccc2n1C1CCN(CCCCc2ccccc2)CC1` [Compound 5, 1-(4-phenylbutyl)-3-(1-(4-phenylbutyl)piperidin-4-yl)-1H-benzo[d]imidazol-2(3H)-one], for which the “Pain Threshold” value in series [3] (1 mg/kg i.p. + Na2S, 15 minutes after administration) stood at 0.317 ± 0.082 g; in series [3] (1 mg/kg i.p. + Na2S, 30 minutes after administration) it was 0.296 ± 0.078 g; in series [3] (3 mg/kg i.p. + Na2S, 15 minutes after administration) it was 0.347 ± 0.079 g; in series [3] (3 mg/kg i.p. + Na2S, 30 minutes after administration), 0.417 ± 0.064 g; in series [3] (10 mg/kg i.p. + Na2S, 15 minutes after administration) it was 0.514 ± 0.054 g; in series [3] (10 mg/kg i.p. + Na2S, 30 minutes after administration) it was 0.604 ± 0.049 g. For the same compound, the inhibition of pain result in series [3] (compound 5 administration group + Na2S, result in words) is “pain was inhibited”; in series [4] (setting [6]), “significantly inhibited”. Moreover, the inhibition of pruritus result in series [4] (setting [6]) was “significantly inhibited”. In addition, in series [4] (setting [7]), the “Scratching bouts (counts/60 minutes)” value turned out to be 36.2 ± 9.5 counts/60 minutes. Also, the “Wipes (counts/60 minutes)” value in series [4] (setting [7]) is 30.7 ± 4.0 counts/60 minutes. Also, the “catalepsy (keeping time of posture)” value in the series on male ddY mice is listed as “catalepsy was induced”. For the same compound, the “Scratching bouts (counts/60 minutes) (n)” value is given as 13.3 ± 5.0 (7) counts/60 minutes in series [5] (10 mg/kg i.p. 30 minutes before histamine, mean ± standard error (n)) and 24.9 ± 5.5 (10) counts/60 minutes in series [2] (10 mg/kg i.p. 30 minutes before chloroquine, Table 6). Moreover, the “inhibition of the histamine-dependent scratching bouts” value in series [5] (10 mg/kg, result in words) is “strongly inhibited”. Further, the “inhibition of the histamine-independent scratching bouts” value in series [2] is listed as “strongly inhibited”. For the same compound, the pIC50 in series [1] is 6.34.
